Experiment [1] concerns the target Human α2δ-1 subunit of Cav2.2 calcium channel (Homo sapiens, UniProt P54289). Nature of the experiment: Human α2δ-1 subunit of Cav2.2 calcium channel assay, [3H]-Gabapentin binding. Conditions: human α2δ-1 enriched membranes, 15 nM [3H]-Gabapentin; Ki as class symbol. The method, then:
Human α2δ-1 Subunit of Cav2.2 Calcium Channel Assay
Human α2δ-1 enriched membranes (2.5 μg) were incubated with 15 nM of radiolabeled [3H]-Gabapentin in assay buffer containing Hepes-KOH 10 mM, pH 7.4. NSB (non specific binding) was measured by adding 10 μM pregabalin. The binding of the test compound was measured at five different concentrations. After 60 min incubation at 27° C., binding reaction was terminated by filtering through Multiscreen GF/C (Millipore) presoaked in 0.5% polyethyleneimine in Vacuum Manifold Station, followed by 3 washes with ice-cold filtration buffer containing 50 mM Tris-HCl, pH 7.4. Filter plates were dried at 60° C. for 1 hour and 30 μl of scintillation cocktail were added to each well before radioactivity reading. Readings were performed in a Trilux 1450 Microbeta radioactive counter (Perkin Elmer).

Experiment [2] concerns the target Human norepinephrine transporter (NET) (Homo sapiens, UniProt P23975). As to the kind of experiment: Binding assay to human norepinephrine transporter (NET), [3H]-Nisoxetin. Conditions: human NET enriched membranes, 5 nM [3H]-Nisoxetin; Ki as class symbol. On the procedure:
Binding Assay to Human Norepinephrine Transporter (NET).
Human norepinephrine transporter (NET) enriched membranes (5 μg) were incubated with 5 nM of radiolabeled [3H]-Nisoxetin in assay buffer containing 50 mM Tris-HCl, 120 mM NaCl, 5 mM KCl, pH 7.4.
NSB (non specific binding) was measured by adding 10 μM of desipramine. The binding of the test compound was measured at five different concentrations.. After 60 min incubation at 4° C., binding reaction was terminated by filtering through Multiscreen GF/C (Millipore) presoaked in 0.5% polyethyleneimine in Vacuum Manifold Station, followed by 3 washes with ice-cold filtration buffer containing 50 mM Tris-HCl, 0.9% NaCl, pH 7.4.
Filter plates were dried at 60° C. for 1 hour and 30 μl of scintillation cocktail were added to each well before radioactivity reading.

Sequence of Human norepinephrine transporter (NET) (P23975 whole entry): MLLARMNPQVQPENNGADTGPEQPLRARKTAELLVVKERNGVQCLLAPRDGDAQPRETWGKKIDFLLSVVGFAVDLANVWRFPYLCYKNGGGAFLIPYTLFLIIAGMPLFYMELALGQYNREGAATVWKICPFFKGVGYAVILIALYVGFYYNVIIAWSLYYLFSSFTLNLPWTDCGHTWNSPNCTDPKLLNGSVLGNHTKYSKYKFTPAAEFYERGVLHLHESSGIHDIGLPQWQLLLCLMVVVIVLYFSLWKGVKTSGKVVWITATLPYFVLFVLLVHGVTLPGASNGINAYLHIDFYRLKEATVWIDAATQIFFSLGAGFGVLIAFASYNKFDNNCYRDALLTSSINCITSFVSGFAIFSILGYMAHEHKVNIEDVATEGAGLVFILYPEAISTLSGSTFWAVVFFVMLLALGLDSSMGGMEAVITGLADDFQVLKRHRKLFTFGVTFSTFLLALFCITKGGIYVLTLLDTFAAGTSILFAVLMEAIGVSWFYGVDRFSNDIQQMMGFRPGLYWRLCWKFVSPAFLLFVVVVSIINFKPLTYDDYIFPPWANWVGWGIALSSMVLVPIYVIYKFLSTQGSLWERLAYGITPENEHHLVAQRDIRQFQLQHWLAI
Sequence of Human α2δ-1 subunit of Cav2.2 calcium channel (P54289 25-1103): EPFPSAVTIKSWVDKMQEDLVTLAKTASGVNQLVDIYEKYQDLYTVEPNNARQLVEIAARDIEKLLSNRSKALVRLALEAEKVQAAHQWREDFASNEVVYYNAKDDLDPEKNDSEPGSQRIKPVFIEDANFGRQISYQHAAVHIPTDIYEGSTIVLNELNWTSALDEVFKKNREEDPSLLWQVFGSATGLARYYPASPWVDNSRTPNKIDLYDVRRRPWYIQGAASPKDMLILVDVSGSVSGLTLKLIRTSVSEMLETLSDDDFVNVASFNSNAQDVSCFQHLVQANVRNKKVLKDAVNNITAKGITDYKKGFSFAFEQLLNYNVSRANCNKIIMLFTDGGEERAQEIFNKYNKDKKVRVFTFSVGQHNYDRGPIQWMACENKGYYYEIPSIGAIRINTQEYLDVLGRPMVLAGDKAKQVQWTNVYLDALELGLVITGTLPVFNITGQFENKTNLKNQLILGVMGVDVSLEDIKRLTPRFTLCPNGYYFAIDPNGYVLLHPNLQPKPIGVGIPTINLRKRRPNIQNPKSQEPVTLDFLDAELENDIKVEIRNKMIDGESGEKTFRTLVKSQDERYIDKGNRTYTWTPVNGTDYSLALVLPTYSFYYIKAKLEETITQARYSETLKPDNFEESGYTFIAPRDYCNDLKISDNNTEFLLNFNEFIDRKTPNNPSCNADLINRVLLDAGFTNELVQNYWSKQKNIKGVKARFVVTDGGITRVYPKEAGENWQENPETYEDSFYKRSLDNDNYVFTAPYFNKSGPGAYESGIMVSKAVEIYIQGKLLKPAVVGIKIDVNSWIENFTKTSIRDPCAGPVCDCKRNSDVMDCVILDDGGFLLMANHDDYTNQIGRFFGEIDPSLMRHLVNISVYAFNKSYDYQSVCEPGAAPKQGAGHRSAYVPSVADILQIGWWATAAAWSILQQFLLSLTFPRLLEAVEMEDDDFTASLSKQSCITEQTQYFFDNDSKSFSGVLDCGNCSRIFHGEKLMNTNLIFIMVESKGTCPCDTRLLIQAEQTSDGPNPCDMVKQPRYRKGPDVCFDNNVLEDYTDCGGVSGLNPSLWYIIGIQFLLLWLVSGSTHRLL

The term Ki denotes the dissociation constant of the complex between target and ligand, obtained from inhibition or displacement. `CCOc1ccc(-n2nc3c(N(C)Cc4cccc(C)n4)nnc(C)c3c2C)c(F)c1` [Example 1, 2-(4-Ethoxy-2-fluorophenyl)-N,3,4-trimethyl-N-((6-methylpyridin-2-yl)methyl)-2H-pyrazolo[3,4-d]pyridazin-7-amine]: the Ki in experiment [1] was 0.1 to 0.5 µM; in experiment [2], 0.5 to 1 µM.

For `CCOc1ccc(-n2nc3c(N(C)Cc4ccc(O)cc4)nnc(C)c3c2C)c(F)c1` [Example 18, 4-(((2-(4-ethoxy-2-fluorophenyl)-3,4-dimethyl-2H-pyrazolo[3,4-d]pyridazin-7-yl)(methyl)amino)methyl)phenol], the inhibition constant Ki in experiment [2] was less than 0.1 µM.

As to `CCOc1ccc(-n2nc3c(N(C)Cc4ccc(C)cn4)nnc(C)c3c2C)c(F)c1` [Example 34, 2-(4-ethoxy-2-fluorophenyl)-N,3,4-trimethyl-N-((5-methylpyridin-2-yl)methyl)-2H-pyrazolo[3,4-d]pyridazin-7-amine], the inhibition constant (Ki) in experiment [1] is 0.1 to 0.5 µM; in experiment [2], more than 1 µM.

Consider `CCOc1ccc(-n2nc3c(N(CC)Cc4ccccn4)nnc(C)c3c2C)c(F)c1` [Example 40, 2-(4-ethoxy-2-fluorophenyl)-N-ethyl-3,4-dimethyl-N-(pyridin-2-ylmethyl)-2H-pyrazolo[3,4-d]pyridazin-7-amine], for which the Ki in experiment [1] lay in the range of 0.5 to 5 µM; in experiment [2], 0.1 to 0.5 µM.

With `CCOc1ccc(-n2nc3c(N(C)CCn4cnc5ccccc54)nnc(C)c3c2C)c(F)c1` [Example 58, N-(2-(1H-Benzo[d]imidazol-1-yl)ethyl)-2-(4-ethoxy-2-fluorophenyl)-N,3,4-trimethyl-2H-pyrazolo[3,4-d]pyridazin-7-amine], the Ki in experiment [1] is 0.5 to 5 µM; in experiment [2], more than 1 µM.

Take `CCOc1ccc(-n2nc3c(N(CCO)Cc4cccnc4)nnc(C)c3c2C)c(F)c1` [Example 57, 2-((2-(4-ethoxy-2-fluorophenyl)-3,4-dimethyl-2H-pyrazolo[3,4-d]pyridazin-7-yl)(pyridin-3-ylmethyl)amino)ethanol]: the Ki in experiment [1] is not below 5 µM; in experiment [2], more than 1 µM.

For `CCOc1ccc(-n2nc3c(N(C)Cc4ncccc4C)nnc(C)c3c2C)c(F)c1` [Example 32, 2-(4-ethoxy-2-fluorophenyl)-N,3,4-trimethyl-N-((3-methylpyridin-2-yl)methyl)-2H-pyrazolo[3,4-d]pyridazin-7-amine], the inhibition constant Ki in experiment [1] and in experiment [2] was 0.1 to 0.5 µM in each case.

Take `Cc1nnc(N(C)Cc2ccccn2)c2nn(-c3ccc(Cl)cc3OC(F)(F)F)c(C)c12` [Example 42, 2-(4-chloro-2-(trifluoromethoxy)phenyl)-N,3,4-trimethyl-N-(pyridin-2-ylmethyl)-2H-pyrazolo[3,4-d]pyridazin-7-amine]: the Ki in experiment [2] is more than 1 µM.

For `CCOc1ccc(-n2nc3c(N(C)Cc4ncccc4F)nnc(C)c3c2C)c(F)c1` [Example 33, 2-(4-ethoxy-2-fluorophenyl)-N-((3-fluoropyridin-2-yl)methyl)-N,3,4-trimethyl-2H-pyrazolo[3,4-d]pyridazin-7-amine], the Ki in experiment [1] and in experiment [2] was 0.1 to 0.5 µM in each case.

Consider `CCOc1ccc(-n2nc3c(NCc4cc(C)ccn4)nnc(C)c3c2C)c(F)c1` [Example 22, 2-(4-ethoxy-2-fluorophenyl)-3,4-dimethyl-N-((4-methylpyridin-2-yl)methyl)-2H-pyrazolo[3,4-d]pyridazin-7-amine], for which the Ki is 0.1 to 0.5 µM in experiment [1] and more than 1 µM in experiment [2].

For `CCOc1ccc(-n2nc3c(N(C)Cc4ccccc4)nnc(C)c3c2C)c(F)c1` [Example 6, N-benzyl-2-(4-ethoxy-2-fluorophenyl)-N,3,4-trimethyl-2H-pyrazolo[3,4-d]pyridazin-7-amine], in experiment [2], the inhibitory constant (Ki) was less than 0.1 µM.

For `CCOc1ccc(-n2nc3c(N(C)Cc4cscn4)nnc(C)c3c2C)c(F)c1` [Example 29, 2-(4-ethoxy-2-fluorophenyl)-N,3,4-trimethyl-N-(thiazol-4-ylmethyl)-2H-pyrazolo[3,4-d]pyridazin-7-amine], the Ki in experiment [1] was 0.1 to 0.5 µM; in experiment [2], more than 1 µM.

With `CCOc1ccc(-n2nc3c(N(C)Cc4ccncc4)nnc(C)c3c2C)c(F)c1` [Example 11, 2-(4-ethoxy-2-fluorophenyl)-N,3,4-trimethyl-N-(pyridin-4-ylmethyl)-2H-pyrazolo[3,4-d]pyridazin-7-amine], the inhibitory constant (Ki) in experiment [1] is 0.1 to 0.5 µM; in experiment [2] it was more than 1 µM.

`CCOc1ccc(-n2nc3c(N(C)Cc4ccc(OC)cn4)nnc(C)c3c2C)c(F)c1` [Example 38, 2-(4-ethoxy-2-fluorophenyl)-N-((5-methoxypyridin-2-yl)methyl)-N,3,4-trimethyl-2H-pyrazolo[3,4-d]pyridazin-7-amine] had an inhibition constant Ki in experiment [2] of 0.1 to 0.5 µM.

Consider `CCOc1ccc(-n2nc3c(N(C)Cc4cc(OC)ccn4)nnc(C)c3c2C)c(F)c1` [Example 31, 2-(4-ethoxy-2-fluorophenyl)-N-((4-methoxypyridin-2-yl)methyl)-N,3,4-trimethyl-2H-pyrazolo[3,4-d]pyridazin-7-amine], for which the Ki in experiment [1] was 0.1 to 0.5 µM; in experiment [2], more than 1 µM.

As for `CCOc1ccc(-n2nc3c(NCC[C@H](O)c4ccccc4)nnc(C)c3c2C)c(F)c1` [Example 52, (S)-3-((2-(4-ethoxy-2-fluorophenyl)-3,4-dimethyl-2H-pyrazolo[3,4-d]pyridazin-7-yl)amino)-1-phenylpropan-1-ol], the Ki in experiment [2] was 0.1 to 0.5 µM.

In turn, `CCOc1ccc(-n2nc3c(N(C)CC[C@H](O)c4ccccc4)nnc(C)c3c2C)c(F)c1` [Example 49, (S)-3-((2-(4-Ethoxy-2-fluorophenyl)-3,4-dimethyl-2H-pyrazolo[3,4-d]pyridazin-7-yl)(methyl)amino)-1-phenylpropan-1-ol] showed an inhibition constant (Ki) in experiment [2] of less than 0.1 µM.

Regarding `CCOc1ccc(-n2nc3c(N(C)Cc4cc(C)ccn4)nnc(C)c3c2C)c(F)c1` [Example 44, 2-(4-ethoxy-2-fluorophenyl)-N,3,4-trimethyl-N-((4-methylpyridin-2-yl)methyl)-2H-pyrazolo[3,4-d]pyridazin-7-amine], the Ki in experiment [2] fell in the range of 0.5 to 1 µM.

In experiment [2], `CCOc1ccc(-n2nc3c(N(C)Cc4cccc(O)c4)nnc(C)c3c2C)c(F)c1` [Example 17, 3-(((2-(4-ethoxy-2-fluorophenyl)-3,4-dimethyl-2H-pyrazolo[3,4-d]pyridazin-7-yl)(methyl)amino)methyl)phenol] had a Ki of 0.1 to 0.5 µM.

As for `CCOc1ccc(-n2nc3c(N(C)CCCc4ccccc4O)nnc(C)c3c2C)c(F)c1` [Example 21, 2-(3-((2-(4-ethoxy-2-fluorophenyl)-3,4-dimethyl-2H-pyrazolo[3,4-d]pyridazin-7-yl)(methyl)amino)propyl)phenol], the Ki in experiment [1] is not below 5 µM; in experiment [2], 0.5 to 1 µM.

Turning to `CCOc1ccc(-n2nc3c(NCCC4(c5ccccn5)CCOC5(CCCC5)C4)nnc(C)c3c2C)c(F)c1` (stereo not shown) [Example 59, 2-(4-ethoxy-2-fluorophenyl)-3,4-dimethyl-N-(2-(9-(pyridin-2-yl)-6-oxaspiro[4.5]decan-9-yl)ethyl)-2H-pyrazolo[3,4-d]pyridazin-7-amine], the values for the Ki in experiment [1] and in experiment [2] were not below 5 µM and more than 1 µM, respectively.

With `CCOc1ccc(-n2nc3c(N(C)CC[C@@H](O)c4ccccc4)nnc(C)c3c2C)c(F)c1` [Example 50, (R)-3-((2-(4-ethoxy-2-fluorophenyl)-3,4-dimethyl-2H-pyrazolo[3,4-d]pyridazin-7-yl)(methyl)amino)-1-phenylpropan-1-ol], the inhibitory constant (Ki) in experiment [2] is 0.1 to 0.5 µM.

`CCOc1ccc(-n2nc3c(N(C)Cc4ccccc4CO)nnc(C)c3c2C)c(F)c1` [Example 41, (2-(((2-(4-ethoxy-2-fluorophenyl)-3,4-dimethyl-2H-pyrazolo[3,4-d]pyridazin-7-yl)(methyl)amino)methyl)phenyl)meth-anol] came in with a Ki in experiment [2] of 0.1 to 0.5 µM.

For `CCOc1ccc(-n2nc3c(NCC[C@@H](O)c4ccccc4)nnc(C)c3c2C)c(F)c1` [Example 51, (R)-3-((2-(4-Ethoxy-2-fluorophenyl)-3,4-dimethyl-2H-pyrazolo[3,4-d]pyridazin-7-yl)amino)-1-phenylpropan-1-ol], the Ki in experiment [2] was more than 1 µM.

In turn, `CCOc1ccc(-n2nc3c(N(C)CCC(O)c4ccccc4)nnc(C)c3c2C)c(F)c1` (stereo not shown) [Example 2, 3-((2-(4-ethoxy-2-fluorophenyl)-3,4-dimethyl-2H-pyrazolo[3,4-d]pyridazin-7-yl)(methyl)amino)-1-phenylpropan-1-ol] gave a Ki in experiment [2] of less than 0.1 µM.

On to `CCOc1ccc(-n2nc3c(N(CCO)Cc4ccccc4)nnc(C)c3c2C)c(F)c1` [Example 55, 2-(benzyl(2-(4-ethoxy-2-fluorophenyl)-3,4-dimethyl-2H-pyrazolo[3,4-d]pyridazin-7-yl)amino)ethanol], for which the Ki in experiment [2] was 0.5 to 1 µM.

Molecule `CCOc1ccc(-n2nc3c(N(C)Cc4ccccn4)nnc(C)c3c2C)cc1` [Example 46, 2-(4-ethoxyphenyl)-N,3,4-trimethyl-N-(pyridin-2-ylmethyl)-2H-pyrazolo[3,4-d]pyridazin-7-amine] showed an inhibition constant (Ki) in experiment [2] of 0.5 to 1 µM.

The values above are taken from US20200199127A1, “(HETERO)ARYLALKYLAMINO-PYRAZOLOPYRIDAZINE DERIVATIVES HAVING MULTIMODAL ACTIVITY AGAINST PAIN” (priority 2017, published 2020).
